Calls of active or inactive are those of the source. The calls are words filed in the database; no cut-off is given here.
The compounds below were run on PC-12 (assay: Neuroprotective activity against okadaic acid-induced cell injury in rat PC12 cells assessed as cell viability at 10 uM after 48 hrs by MTT assay (reference value: 60.4 +/- 23%)). Settings: not given.
Format: functional

| SMILES | Activity |
| --- | --- |
| CC(=O)OC[C@@]12[C@@H](OC(=O)/C=C/c3ccccc3)CC[C@](C)(O)[C@]13OC(C)(C)[C@H]([C@@H](O)[C@H]2O)[C@H]3OC(C)=O | inactive |
| CC(=O)OC[C@@]12[C@@H](OC(=O)/C=C/c3ccccc3)CC[C@](C)(O)[C@]13OC(C)(C)[C@H](C(=O)[C@H]2OC(=O)c1ccoc1)[C@H]3O | inactive |
| CC(=O)OC[C@@]12[C@@H](OC(=O)/C=C\c3ccccc3)CC[C@](C)(O)[C@]13OC(C)(C)[C@H]([C@@H](OC(C)=O)[C@H]2OC(=O)c1ccoc1)[C@H]3O | inactive |
| CC(=O)OC[C@@]12[C@@H](OC(=O)/C=C/c3ccccc3)CC[C@](C)(O)[C@]13OC(C)(C)[C@H]([C@@H](O)[C@H]2OC(=O)c1ccoc1)[C@H]3OC(C)=O | inactive |
| CC(=O)OC[C@@]12[C@@H](OC(=O)/C=C/c3ccccc3)CC[C@](C)(O)[C@]13OC(C)(C)[C@H]([C@@H](OC(C)=O)[C@H]2OC(=O)c1ccoc1)[C@H]3O | inactive |
| CC(=O)OC[C@@]12[C@@H](OC(=O)c3ccoc3)CC[C@@H](C)[C@]13OC(C)(C)[C@H]([C@@H](OC(C)=O)[C@H]2OC(=O)c1cccnc1)[C@H]3OC(=O)c1ccoc1 | inactive |
| CC(=O)O[C@@H]1[C@H]2[C@@H](O)[C@@H](OC(=O)c3ccoc3)[C@]3(CO)[C@@H](OC(=O)/C=C/c4ccccc4)CC[C@](C)(O)[C@@]13OC2(C)C | inactive |
| CC(=O)OC[C@@]12[C@@H](OC(=O)/C=C\c3ccccc3)CC[C@](C)(O)[C@]13OC(C)(C)[C@H](C(=O)[C@H]2OC(=O)c1ccoc1)[C@H]3O | inactive |

Same assay, conditions: PC-12, 48 h, read-out: Activity

| SMILES | viability at 10 µM |
| --- | --- |
| CC(=O)OC[C@@]12[C@@H](OC(=O)/C=C\c3ccccc3)CC[C@@H](C)[C@]13OC(C)(C)[C@H]([C@@H](OC(C)=O)[C@H]2OC(=O)c1cccnc1)[C@H]3OC(C)=O | 75.7% |
| CC(=O)OC[C@]12[C@H](OC(C)=O)[C@H](OC(C)=O)[C@@H]3[C@@H](OC(=O)c4ccccc4)[C@@]14OC3(C)COC(=O)c1cccnc1C(C)C(C)C(=O)O[C@@H]([C@H](O)[C@@H]2OC(=O)c1ccccc1)[C@]4(C)O (stereo partly drawn) | 86.2% |
| CC(=O)OC[C@@]12[C@@H](OC(=O)/C=C/c3ccccc3)CC[C@@H](C)[C@]13OC(C)(C)[C@H]([C@@H](OC(C)=O)[C@H]2OC(=O)c1cccnc1)[C@H]3OC(C)=O | 81.2% |
| CC(=O)OC[C@@]12[C@@H](OC(C)=O)CC[C@@H](C)[C@]13OC(C)(C)[C@H]([C@@H](OC(C)=O)[C@H]2OC(=O)c1cccnc1)[C@H]3OC(=O)c1ccoc1 | 71.5% |
| CC(=O)OC[C@@]12[C@@H](OC(=O)c3ccoc3)CC[C@@H](C)[C@]13OC(C)(C)[C@H]([C@@H](OC(C)=O)[C@H]2OC(=O)c1cccnc1)[C@H]3OC(C)=O | 72.4% |
